Data reported in ChEMBL document CHEMBL1145657, “Chemistry of Acronycine I. Carbon- 13 NMR Studies of Acronycine and Related Compounds” (J Nat Prod, 1983).
Active and inactive are the calls of the source. The calls are words filed in the database; no cut-off is given here.

System: KB
Test: Cytotoxicity against human KB cells
Type: functional, cell-based

| SMILES | Activity |
| --- | --- |
| Cn1c2ccccc2c(=O)c2c(O)cc3c(c21)CCC(C)(C)O3 | inactive |
| Cn1c2ccccc2c(=O)c2c(O)cc3c(c21)C=CC(C)(C)O3 | inactive |
